Results: patent publication US8957087B2, “Heterocyclic substituted acardite derivate and application thereof” (Jiangsu Provincial Institute of Materia Medica Co., Ltd., priority 2009, dated 2015)

Tests used:
[1] = tested on: human umbilical vein endothelial cell HUVEC; assay: Lumen formation ability of HUVEC (Matrigel method); assay type: cell-based; conditions: Final concentration 1 x 1.0*10^(−5) mol/L
Procedure, shortened: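 HUVEC at passage 3–5, cultured in M199 at 37° C under 5% CO2, were plated on Matrigel with compound. Spontaneous lumen formation was scored as an inhibition rate.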

[2] = tested on: human liver cancer cell bel-7402 transplantation tumor; assay type: in vivo; conditions: 60 mg/kg, 6 times every week for 3 weeks; for Relative tumor reproduction rate T/C (%) on human liver cancer cell bel-7402 transplantation tumor model in nude mice: BALB/cA nude mice, Sorafenib oral 60 mg/kg
Procedure, shortened: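 Female BALB/cA nude mice (35–40 days, 18–22 g) bearing Bel-7402 xenografts; 6 mice per treated group, 12 in saline controls. Compound dosed at 60 mg/kg, 6 times weekly for 3 weeks, followed by one week of observation; tumor inhibition rate scored against controls.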

[3] = tested on: human umbilical vein endothelial cell HUVEC; assay: Growth of human umbilical vein endothelial cell HUVEC by CCK8 method; assay type: cell-based; conditions: Final concentration 1 x 1.0*10^(−5) mol/L
Procedure, shortened: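 HUVEC cells were grown in 1640 medium with 10% FBS, and growth was measured by the CCK8 method. OD values of drug and control wells were corrected by subtracting the blank-well OD.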

[4] = tested on: Human colon cancer HT-29 transplantable tumor; assay: Human colon cancer HT-29 transplantable tumor in nude mice; conditions: for Relative tumor reproduction rate T/C (%): HT-29 in nude mice
Description: Experimental therapeutic action of the compound in the present invention on Human colon cancer HT-29 transplantable tumor in nude mice.
Take eugenic tumor tissues and cut into about 1.5 mm^3, and then incoculate subcutaneously at the right armpit of nude mice under the sterile conditions. The diameter of the transplantable tumor in nude mice was determined with a vernier caliper, and the animals were divided into groups after the tumors were grown to 100-300 mm^3. Using the method of measuring the tumor diameter, dynamically observe the antitumor effects of tested materials. The diameter of the tumor was determined three times every week and the mouse weight was weighed at the same time. […] The solvent was intragastrically administrated as the control for continuous 9 times. Equal amount of control was administrated in the negative control group.
Tumor volume (TV) is calculated as: TV=½×a×b^2, wherein a and b respectively represent length and width.
Relative tumor volume (RTV) is calculated as: RTV=TVt/TV0, wherein TV0 is the tumor volume when administrated according to different cages and TVt is the tumor volume measured each time.
Relative tumor reproduction rate T/C (%) is calculated as follows:
TRTV: RTV in the treatment group; CRTV: RTV in the negative control group.
The test results used relative tumor reproduction rate T/C (%) as evaluating indicator of anti-tumor activity.

[5] = tested on: human lung cancer cell strain A549; assay: MTT assay, inhibition of growth of human lung cancer cell strain A549; assay type: cell-based
Procedure, shortened: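 A549 cells grown in F12 with 10% FBS; growth read by MTT, inhibition rate from blank-corrected OD of drug wells versus control wells.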

lung cancer cell A549 = assay: Effects on the adhesive ability of lung cancer cell A549; assay type: cell-based, human; conditions: Final concentration 1 x 1.0*10^(−5) mol/L
Procedure, shortened: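 A549 cells in 1640 medium with 10% FBS tested for adhesion to gelatin versus poly-lysine (PLL), with CCK8 used as read-out. Inhibition rate derived from the gelatin/PLL adhesion OD ratio of dosed cells relative to the undosed cell group.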

[6] = tested on: human high-metastic lung cancer cell 95D; assay: Inhibition of human high-metastic lung cancer cell 95D migration (Boyden Chamber Transwell); assay type: cell-based; conditions: Final concentration 1 x 1.0*10^(−5) mol/L
Procedure, shortened: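 Boyden Transwell migration (8 μm pores) of 95D cells, RPMI-1640 with 10% FBS versus serum-free medium; inhibition rate calculated.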

Raf-1(truncated) = assay: Raf-1 inhibitor screening by chemoluminescence method; assay type: biochemical; conditions: Final concentration 1 x 1.0*10^−5 mol/ml
Description: 1. Inhibitory activity of the compound of the present invention on raf kinase
Raf-1 inhibitor screening by chemoluminescence method
Westernblot electrophoresis apparatus Rotaryshaker
Raf-1(truncated), Magnesium/ATP Cocktail, MEK1 unactive

mice S180 sarcoma = assay: Experimental therapeutic action on S180 sarcoma mice; conditions: for Tumor growth inhibition rate (%): mice S180 sarcoma, 60 mg/kg orally for 9 days
[7] = tested on: human lung cancer A549 transplantation tumor; assay type: in vivo; conditions: 60 mg/kg, 6 times every week for 3 weeks; for Relative tumor reproduction rate T/C (%) on human lung cancer A549 transplantation tumor in nude mice: BALB/cA nude mice, Sorafenib oral 60 mg/kg
Procedure, shortened: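 Female BALB/cA nude mice, 35-40 days old, bearing A549 human lung cancer transplants; 6 per treatment group, 12 saline controls. Compound given at 60 mg/kg, 6 times weekly for 3 weeks, then observed one week.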

[8] = tested on: renal carcinoma cell line GCR-1 transplanted tumor; assay type: in vivo, BALB/cA nude mice; conditions: 60 mg/kg, 6 times every week for 3 weeks; for Relative tumor reproduction rate T/C (%) on human renal carcinoma GCR-1 cell transplanted tumor model in nude mice: BALB/cA nude mice, Sorafenib oral 60 mg/kg
Procedure, shortened: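 Female BALB/cA nude mice (18–22 g) bearing GCR-1 renal carcinoma xenografts, 6 per treated group, 12 saline controls. Drug given at 60 mg/kg, 6 times weekly for 3 weeks, then one week of observation; tumor inhibition rate reported.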

Structure (SMILES)	Inhibition rate, lumen formation ability of HUVEC [1]	Relative tumor reproduction rate T/C (%) on human liver cancer cell bel-7402 transplantation tumor model in nude mice [2]	Inhibition rate, growth of HUVEC cell [3]	Relative tumor reproduction rate T/C (%) ([4]; 60 mg/kg ig 9 times)	Inhibition rate, growth of human lung cancer cell A549 [5]	Inhibition rate, adhesion ability of human lung cancer cell A549 (lung cancer cell A549)	Inhibition rate, 95D cell strain migration [6]	Inhibition rate % on raf kinase (Raf-1(truncated))	Tumor growth inhibition rate (%) (mice S180 sarcoma)	Relative tumor reproduction rate T/C (%) on human lung cancer A549 transplantation tumor in nude mice [7]	Relative tumor reproduction rate T/C (%) on human renal carcinoma GCR-1 cell transplanted tumor model in nude mice [8]	further results
CCNC(=O)c1cc(Oc2ccc(NC(=O)Nc3ccc(Cl)c(OC)c3)c(OC)c2)c2ccc([N+](=O)[O-])cc2n1 [Compound 36, N-(4-chloro-3-methoxyphenyl)-N′-(2-methoxyl-4-(2-(N-ethylcarbamyl)-4-(7-nitryl-quinolinyl)oxy)phenyl)urea]	64.50%	37.9%	12.45%	41.5%	72.45%	74.50%	84.59%	81.2%	55.1%	37.9%	25.9%	
CCCNC(=O)c1cc(Oc2ccc(NC(=O)Nc3ccc(Cl)c(OC)c3)c(F)c2)c2ccc(C(F)(F)F)cc2n1 [Compound 37]	71.72%	36.3%	19.65%	39.5%	71.65%	71.74%	79.25%	81.5%	24.1%	38.3%	32.3%	
CCCNC(=O)c1cc(Oc2ccc(NC(=O)Nc3ccc(Cl)c(OC)c3)c(C(F)(F)F)c2)c2ccc(C(F)(F)F)cc2n1 [Compound 38]	65.55%	31.5%	14.56%	41.2%	74.56%	75.53%	80.53%	88.1%	59.2%	36.5%	20.5%	
CNC(=O)c1cc(Oc2ccc(NC(=O)Nc3ccc(Cl)c(C(F)(F)F)c3)cc2)ccn1 [Sorafenib, reference compound]	55.60%		22.61%		54.60%	72.66%	62.32%	85.7%				Mortality of the animals [2]: no mortality; Weight (g) d0 ([4]; nude mouse body weight d0, 60 mg/kg): 19.9 ± 1.1 g; Weight (g) d13 ([4]; nude mouse body weight d13, 60 mg/kg ig 9 times): 20.4 ± 1.4 g; RTV ([4]; relative tumor volume, 60 mg/kg ig 9 times): 2.36 ± 0.57; TV d0 ([4]; tumor volume d0, 60 mg/kg): 133 ± 33; TV d13 ([4]; tumor volume d13, 60 mg/kg ig 9 times): 308 ± 86; Tumor weight x ± SD (mice S180 sarcoma; 60 mg/kg ig for 9 days, day 10): 0.71 ± 0.30 g; Tumor growth inhibition rate (%) (mice S180 sarcoma; 60 mg/kg): 55.9%; Tumor growth inhibition rate (%) (mice S180 sarcoma; listed as Sora, 60 mg/kg): 55.9%; Mortality of the animals [7]: no mortality; Mortality of the animals [8]: no mortality
